Here are results for five compounds from US6399051B2, “Method and agents for permanently styling hair, with a base consisting of N,N-disubstituted mercaptoacetamides” (priority 1997, dated 2002).

By pKa is commonly meant the negative logarithm of the acid dissociation constant. Higher therefore signals a weaker acid or stronger base.

The conditions of series [1]: 20 min at 50° C., relative to glycerol monothioglycolate solution pH 9 = 100%; for Standardized Wave Stability WSN pH = 7: waving solution pH 7, 87 mmol reducing agent/100 g; for Standardized Wave Stability WSN pH = 8: waving solution pH 8, 87 mmol reducing agent/100 g; for Standardized Wave Stability WSN pH = 9: waving solution pH 9, 87 mmol reducing agent/100 g.
Series [2] is described as follows: pKa determination (H2O).

Take Thiolactic acid [reference compound]: in series [1], the “Standardized Wave Stability WSN pH = 7” value stood at 57%, the “Standardized Wave Stability WSN pH = 8” value is given as 50% and the “Standardized Wave Stability WSN pH = 9” value is on record as 70%.
For `CCN(CC)C(=O)CS` [Mercaptoacetamide 2, N,N-Diethylmercaptoacetamide], in that order: 83%, 98% and 106%.
For `CN(C)C(=O)CS` [Mercaptoacetamide 1, N,N-Dimethylmercaptoacetamide], in that order: 81%, 98% and 98%.
In series [2], `CCN(CCO)C(=O)CS` [Mercaptoacetamide 4, N-Ethyl-N-2′-hydroxyethylmercaptoacetamide] displayed a pKa of 7.604.
Consider `CCCCN(C)C(=O)CS` [Mercaptoacetamide 3, N-Butyl-N-methylmercaptoacetamide], for which, in series [2], the pKa is recorded as 7.873. Besides, in series [1], the “Standardized Wave Stability WSN pH = 7” value worked out at 63%, the “Standardized Wave Stability WSN pH = 8” value is reported as 67% and the “Standardized Wave Stability WSN pH = 9” value stood at 87%.
